Measured values reported in US7320980B2, “Substituted pyrido(1,2-a)pyrimidines and their use as NOS inhibitors” (Gruenenthal GmbH, priority 2003, dated 2008).
Structures can show the parent of a compound that is named as a salt.

Molecular target: T1, NO synthase (Rattus norvegicus, UniProt P29476)
T1 construct: the supernatant was then decanted off and frozen in portions at −80° C., discarding the precipitate; from tissue; host or cells: rat cerebellum, 20,000 g supernatant of homogenate
Test: NOS / HTS-NOS assay (radioactive arginine conversion, rat cerebellum enzyme preparation)
Type: biochemical
Conditions: rat cerebellum supernatant enzyme, [3H]-arginine substrate, 25° C.; read-out: NOS Arg IC50
From the text: This assay makes it possible to determine the percentage inhibition of NO synthase (hereinafter referred to as the enzyme) by a compound of the general formula II used according to the invention, optionally in the form of one of the pure stereoisomers thereof, in particular enantiomers or diastereomers, the racemates thereof or in the form of a mixture of stereoisomers, in particular the enantiomers or diastereomers, in any desired mixing ratio, or in each case in the form of the free base thereof or in the form of the physiologically acceptable salt thereof, in particular hydroperchlorate salt or in each case in the form of the solvate thereof, in particular hydrate (hereinafter referred to as the active ingredient), by measuring enzyme activity on exposure to the compound. The enzyme is here mixed under suitable conditions together with radioactively labelled arginine and the particular active ingredient. After termination of the NO formation reaction at a predetermined time, the quantity of unconverted arginine is directly or indirectly determined.
This assay may be carried out at follows: • (a) Incubation of the enzyme with labelled arginine as the substrate in a reaction vessel, • (b) Separation of the labelled arginine from the labelled citrulline optionally arising as a product of the enzymatic reaction at a time at which the concentration of citrulline is rising, • (c) Measurement of the quantity of arginine separated in each case.
Separation is performed by means of a filter plate membrane.
Radioactive arginine is used as the substrate in this HTS-NOS assay. Depending on the type of microtitre plate (MTP), the assay volume may be selected in the range between 25 μl and 250 μl. Depending on the enzyme source used, cofactors and coenzymes are added. The batches are incubated in this microtitre plate (assay MTP) according to step (a) at room temperature and, depending on the enzyme activity used (units), lasts between 5 and 60 minutes. On completion of incubation (step (a)), the plate is placed in a cell harvester, which is equipped with an MTP which has a cation exchange membrane as a filter bottom (filter MTP). All the batches from the assay MTP are transferred into this filter MTP and suction filtered through a cation exchange filter plate, a paper filter loaded with phosphate groups. The filter MTP is then washed with buffer or water. This procedure binds the remaining substrate arginine onto the cation exchanger, while the enzymatically formed radioactive citrulline is quantitatively eluted. Once the filter MTP has been dried and scintillation liquid (Ready Protein, Beckmann Coulter GmbH, Krefeld, Germany) added, the bound arginine can be counted in the scintillation counter (Packard TRI-CARB Liquid Scintillation Analyzer 2000 CA, Packard Instrument, Meriden, Conn. 06450, USA). Low radioactivity indicates an uninhibited enzyme reaction. An inhibited enzyme reaction means that the radioactive arginine has not been converted. It may be concluded from this that there is then a high level of radioactivity on the filter.
The NOS and HTS-NOS assays were performed as described above.
Rat cerebella were used as the starting tissue. The animals were stunned and killed, the brain tissue, the cerebellum, was dissected out, 1 ml of enzyme preparation buffer (4° C.) was added per cerebellum, and the tissue was disrupted for 1 min at 6000 rpm in a Polytron homogeniser. The mixture was then centrifuged at 4° C. for 15 min at 20,000 g, and the supernatant was then decanted off and frozen in portions at −80° C., discarding the precipitate. The frozen supernatant was subsequently thawed for the assay and pipetted out onto a microtitre plate.
96-well MTPs with a well capacity of <250 μl were used.
Once pipetting was complete, a lid was placed on this MTP (assay MTP) and incubation performed at 25° C. (room temperature [RT]) for 5-60 min, depending on the quantity and activity of the enzyme used (see in this connection Table 1). […]

Compound | IC50 [µM]
CC1=CC2=NCC(C(=O)c3ccc(Cl)cc3)CN2C=C1 (stereo not drawn) [Example 7, 3-(4′-Chlorobenzoyl)-3,4-dihydro-2H-8-methylpyrido[1,2-a]pyrimidinium perchlorate] | 6.4
CC1=CC2=NCC(C(=O)c3ccc(-c4ccccc4)cc3)CN2C=C1 (stereo not drawn) [Example 8, 3-(4′-Biphenylcarbonyl)-3,4-dihydro-2H-8-methylpyrido[1,2-a]pyrimidinium perchlorate] | 13
CC1=CC2=NCC(C(=O)c3ccccc3)CN2C(C)=C1 (stereo not drawn) [Example 6, 3-Benzoyl-3,4-dihydro-2H-6,8-dimethylpyrido[1,2-a]pyrimidinium perchlorate] | 8.4
CC1=CC2=NCC(C(=O)c3ccc(Br)cc3)CN2C=C1 (stereo not drawn) [Example 3, 3-(4′-Bromobenzoyl)-3,4-dihydro-2H-8-methylpyrido[1,2-a]pyrimidinium perchlorate] | 14
CC1=CC2=NCC(C(=O)c3ccc4ccccc4c3)CN2C(C)=C1 (stereo not drawn) [Example 2, 3-(2′-Naphthoyl)-3,4-dihydro-2H-6,8-dimethylpyrido[1,2-a]pyrimidinium perchlorate] | 6.7
CC1=CC=CC2=NCC(C(=O)c3ccc(-c4ccccc4)cc3)CN12 (stereo not drawn) [Example 9, 3-(4′-Biphenylcarbonyl)-3,4-dihydro-2H-6-methylpyrido[1,2-a]pyrimidinium perchlorate] | 7.6
CC1=CC2=NCC(C(=O)c3ccc4ccccc4c3)CN2C=C1 (stereo not drawn) [Example 1, 3-(2′-Naphthoyl)-3,4-dihydro-2H-8-methylpyrido[1,2-a]pyrimidinium perchlorate] | 1.4
CC1=CC2=NCC(C(=O)c3ccc(F)cc3)CN2C=C1 (stereo not drawn) [Example 4, 3-(4′-Fluorobenzoyl)-3,4-dihydro-2H-8-methylpyrido[1,2-a]pyrimidinium perchlorate] | 8.5
CC1=CC2=NCC(C(=O)c3ccccc3)CN2C=C1 (stereo not drawn) [Example 5, 3-Benzoyl-3,4-dihydro-2H-8-methylpyrido[1,2-a]pyrimidinium perchlorate] | 9.1

Test system: formaldehyde-induced nociception
Test: Formaldehyde test (rat), second phase
Type: in vivo
Conditions: iv, male Sprague-Dawley rats, second (late) phase of formaldehyde test, pain rate change relative to control
Description: The investigations for determining the antinociceptive action of the compounds used according to the invention of the general formula II were carried out by the formaldehyde test on male rats (Sprague-Dawley, 150-170 g, Charles River).
In the formaldehyde test, a distinction is drawn between the first (early) phase (0-15 min after formaldehyde injection) and the second (later) phase (15-60 min after formaldehyde injection), as described in D. Dubuisson, S. G. Dennis, Pain 4, 161-174 (1977). […]
A nociceptive reaction was induced in the freely mobile test animals by a single, subcutaneous formaldehyde injection (50 μl, 5 wt. %) into the dorsal side of the rear hind paw, the reaction being classed according to one of the following behavioural parameters: lifting and holding up the affected paw (score 1), shaking or twitching (score 2), licking and biting (score 3). The differential behaviour induced by the formaldehyde injection was recorded by observing the rats in the late phase of the formaldehyde test and assigned a variable weighting in the evaluation. Normal behaviour, in which the rat places an even load on all four paws, was recorded as a score of 0. […] The nociceptive behaviour was calculated as a “pain rate” (PR). […]
The analgesic action of the compounds of the general formula II used according to the invention was determined as described above.

Compound | ED50 [mg/kg]
CC1=CC2=NCC(C(=O)c3ccc4ccccc4c3)CN2C=C1 (stereo not drawn) [Example 1, 3-(2′-Naphthoyl)-3,4-dihydro-2H-8-methylpyrido[1,2-a]pyrimidinium perchlorate] | 7.27

Test system: not given
Test: not given
Conditions: not given

Compound | melting point [°C]
CC1=CC2=NCC(C(=O)c3ccccc3)CN2C(C)=C1 (stereo not drawn) (as salt: perchlorate) [Example 6, 3-Benzoyl-3,4-dihydro-2H-6,8-dimethylpyrido[1,2-a]pyrimidinium perchlorate] | 78
CC1=CC2=NCC(C(=O)c3ccccc3)CN2C=C1 (stereo not drawn) (as salt: perchlorate) [Example 5, 3-Benzoyl-3,4-dihydro-2H-8-methylpyrido[1,2-a]pyrimidinium perchlorate] | > 290
CC1=CC2=NCC(C(=O)c3ccc(Cl)cc3)CN2C=C1 (stereo not drawn) (as salt: perchlorate) [Example 7, 3-(4′-Chlorobenzoyl)-3,4-dihydro-2H-8-methylpyrido[1,2-a]pyrimidinium perchlorate] | 123 to 125
CC1=CC2=NCC(C(=O)c3ccc(-c4ccccc4)cc3)CN2C=C1 (stereo not drawn) (as salt: perchlorate) [Example 8, 3-(4′-Biphenylcarbonyl)-3,4-dihydro-2H-8-methylpyrido[1,2-a]pyrimidinium perchlorate] | 111
CC1=CC2=NCC(C(=O)c3ccc(Br)cc3)CN2C=C1 (stereo not drawn) (as salt: perchlorate) [Example 3, 3-(4′-Bromobenzoyl)-3,4-dihydro-2H-8-methylpyrido[1,2-a]pyrimidinium perchlorate] | 158 to 161
